Source: patent US20240263146A1, “HUMAN NSCLC CELL LINES AND USES THEREOF” (SHANGHAI LIDE BIOTECH CO., LTD., priority 2020, published 2024)

Key:
Assay in all cases: cells
[1] = test system: LD1-0006-215676 (EGFR L858R/T790M) cell line; settings: Homo sapiens, 144 h
Protocol: (§1) The cell lines of the present disclosure (i.e., LD1-0025-200636; LD1-0025-200694; LD1-0006-215676; and LD1-0025-200717) were seeded at 2×10^2 cells/well to 96 well round bottom ultra low attachment plate. The drugs were added into the cell lines and the cells were cultured in 37° C. and 5% CO2 for 6 days. The ATP amount was measured using CellTiter-Glo. The Inhibition rate corresponding to the concentration of the drugs was calculated. The equation for calculating the inhibition rate is as follows: […]
(§2) Inhibition curve was graphed by XLfit(IDBS) and IC50 was calculated.

[2] = test system: LD1-0025-200636 (EGFR WT) cell line; settings: Homo sapiens, 144 h
Protocol: as §1, §2

[3] = test system: LD1-0025-200694 (EGFR L858R) cell line; settings: Homo sapiens, 144 h
Protocol: as §1, §2

[4] = test system: LD1-0025-200717 (EGFR 19del, T790M & C797S mutant) cell line; settings: Homo sapiens, LD1-0025-200717, 144 h
Protocol: as §1, §2

## C=CC(=O)Nc1cc(Nc2nccc(-c3cn(C)c4ccccc34)n2)c(OC)cc1N(C)CCN(C)C [AZD9291, Osimertinib]
[1]
  IC50: 0.03 µM
[2]
  IC50: 2.52 µM
[3]
  IC50: 2.67 µM
[4]
  IC50: 2.01 µM
